Reference: the NIST ThermoML archive (doi:10.1021/je800945e)
Numbers after ± are expanded uncertainties.

Settings: Crystal; visual observation

For `Nc1cccnc1` [β-aminopyridine], the Normal melting temperature was 64.50 ± 0.5 °C.
